Assay results reported in ChEMBL document CHEMBL3992545, “Discovery and dimeric approach of novel Natriuretic Peptide Receptor A (NPR-A) agonists” (Bioorg Med Chem, 2017).
Each block holds one compound with its values, some of them ahead of it. Calls of active or inactive are those of the source. No cut-off for these calls is given here.

Key:
Rattus norvegicus [1] = assay: Diuretic activity in iv dosed Crl:CD(SD) rat assessed as increase in urine volume administered as bolus dose measured up to 60 mins; assay type: functional, organism-based
[2] = target: T1, Atrial natriuretic peptide receptor 1 (Homo sapiens, UniProt P16066); assay: Agonist activity at human NPR-A expressed in CHO cells assessed as increase in cGMP accumulation after 30 mins by radioimmunoassay; assay type: cell-based
T1 sequence (P16066 whole entry): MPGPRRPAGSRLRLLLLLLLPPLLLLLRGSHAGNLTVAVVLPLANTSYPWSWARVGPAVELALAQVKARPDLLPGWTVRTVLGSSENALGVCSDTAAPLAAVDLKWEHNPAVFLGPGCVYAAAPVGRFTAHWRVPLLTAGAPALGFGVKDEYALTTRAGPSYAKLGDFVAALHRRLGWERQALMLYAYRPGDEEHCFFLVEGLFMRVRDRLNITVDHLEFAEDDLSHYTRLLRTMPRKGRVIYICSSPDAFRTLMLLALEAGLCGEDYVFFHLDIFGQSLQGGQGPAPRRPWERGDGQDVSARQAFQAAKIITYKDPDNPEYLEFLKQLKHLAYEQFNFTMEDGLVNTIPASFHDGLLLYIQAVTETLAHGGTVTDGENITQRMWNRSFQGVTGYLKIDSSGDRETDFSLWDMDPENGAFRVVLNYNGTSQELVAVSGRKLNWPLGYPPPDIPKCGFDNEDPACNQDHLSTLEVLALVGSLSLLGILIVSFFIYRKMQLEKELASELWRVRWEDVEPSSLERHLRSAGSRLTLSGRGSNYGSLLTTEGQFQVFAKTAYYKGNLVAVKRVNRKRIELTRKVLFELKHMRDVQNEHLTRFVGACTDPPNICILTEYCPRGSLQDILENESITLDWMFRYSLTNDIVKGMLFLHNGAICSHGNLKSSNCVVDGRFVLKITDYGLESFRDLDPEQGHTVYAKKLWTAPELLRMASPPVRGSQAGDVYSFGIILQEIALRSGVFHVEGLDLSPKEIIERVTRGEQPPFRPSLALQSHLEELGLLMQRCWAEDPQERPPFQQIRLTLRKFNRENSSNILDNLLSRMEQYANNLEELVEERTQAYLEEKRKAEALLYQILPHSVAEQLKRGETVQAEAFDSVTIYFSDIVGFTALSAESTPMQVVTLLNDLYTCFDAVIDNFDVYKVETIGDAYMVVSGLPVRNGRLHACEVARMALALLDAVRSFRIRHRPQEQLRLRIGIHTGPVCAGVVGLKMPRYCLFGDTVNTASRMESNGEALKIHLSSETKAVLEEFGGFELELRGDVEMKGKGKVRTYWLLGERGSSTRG

Rattus norvegicus [3] = assay: In vivo agonist activity at NPR-A in iv dosed Crl:CD(SD) rat assessed as increase in cGMP accumulation in kidney administered as infusion over 30 mins by radioimmunoassay; assay type: functional, organism-based
[4] = target: T2, Atrial natriuretic peptide receptor 1 (Rattus norvegicus, UniProt P18910); assay: Agonist activity at rat NPR-A expressed in CHO cells assessed as increase in cGMP accumulation after 15 mins by fluorescent assay; assay type: cell-based
T2 sequence (P18910 whole entry): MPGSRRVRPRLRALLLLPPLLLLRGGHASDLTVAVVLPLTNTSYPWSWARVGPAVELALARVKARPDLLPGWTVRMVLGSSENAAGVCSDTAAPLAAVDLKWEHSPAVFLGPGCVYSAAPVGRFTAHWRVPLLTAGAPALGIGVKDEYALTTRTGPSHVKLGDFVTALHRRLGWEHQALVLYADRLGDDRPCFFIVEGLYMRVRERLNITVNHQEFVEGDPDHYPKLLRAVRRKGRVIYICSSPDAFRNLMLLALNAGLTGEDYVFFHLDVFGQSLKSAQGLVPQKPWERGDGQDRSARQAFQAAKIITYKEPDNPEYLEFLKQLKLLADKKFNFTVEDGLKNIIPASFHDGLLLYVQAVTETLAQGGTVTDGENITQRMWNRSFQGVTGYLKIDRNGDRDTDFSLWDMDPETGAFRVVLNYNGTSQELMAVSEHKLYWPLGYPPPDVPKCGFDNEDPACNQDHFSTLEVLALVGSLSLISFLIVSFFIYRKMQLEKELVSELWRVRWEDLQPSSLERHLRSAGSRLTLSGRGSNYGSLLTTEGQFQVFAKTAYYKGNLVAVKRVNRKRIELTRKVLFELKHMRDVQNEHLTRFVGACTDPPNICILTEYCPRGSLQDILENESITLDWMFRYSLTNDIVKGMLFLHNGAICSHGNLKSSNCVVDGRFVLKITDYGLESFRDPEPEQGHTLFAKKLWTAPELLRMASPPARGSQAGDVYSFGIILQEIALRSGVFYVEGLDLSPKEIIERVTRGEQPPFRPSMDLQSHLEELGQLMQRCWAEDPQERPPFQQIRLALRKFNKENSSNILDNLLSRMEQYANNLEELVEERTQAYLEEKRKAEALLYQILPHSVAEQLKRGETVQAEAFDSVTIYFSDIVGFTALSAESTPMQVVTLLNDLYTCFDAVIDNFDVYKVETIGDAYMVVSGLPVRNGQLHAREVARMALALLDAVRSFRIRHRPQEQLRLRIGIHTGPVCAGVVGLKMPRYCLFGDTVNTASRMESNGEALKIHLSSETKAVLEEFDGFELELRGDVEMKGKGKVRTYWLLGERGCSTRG

Rattus norvegicus [5] = assay: In vivo agonist activity at NPR-A in Crl:CD(SD) rat assessed as increase in cGMP accumulation in lung at 30 ug/kg/min, iv; assay type: functional, organism-based
Rattus norvegicus [6] = assay: Diuretic activity in Crl:CD(SD) rat assessed as increase in urine volume at 10 ug/kg, iv administered as bolus dose measured up to 60 mins; assay type: functional, organism-based
Rattus norvegicus [7] = assay: In vivo agonist activity at NPR-A in Crl:CD(SD) rat assessed as increase in cGMP accumulation in kidney at 1 ug/kg/min, iv administered as infusion over 30 mins by radioimmunoassay; assay type: functional, organism-based

SMILES: CC(C)CC1C(=O)N=C(N)N1c1nc(NC(=N)N)nc(NC2CCC(Nc3nc(NC(=N)N)nc(N4C(N)=NC(=O)C4CC(C)C)n3)CC2)n1 (configuration not stated)
Activity (Rattus norvegicus [1]): Dose-dependent effect
EC50 [2]: 8.1 nM
Activity (Rattus norvegicus [3]): Dose-dependent effect
EC50 [4]: 76 nM
Activity (Rattus norvegicus [5]): Active

SMILES: C/N=C(\N(C)C)N(C)c1nc(Nc2ccccc2)nc(N2C(N)=NC(=O)C2CC(C)C)n1 (configuration not stated)
EC50 [2]: 64000 nM

SMILES: CC[C@H](C)[C@@H]1NC(=O)[C@H](CCCNC(=N)N)NC(=O)[C@H](CC(=O)O)NC(=O)[C@H](CCSC)NC(=O)[C@H](CCCNC(=N)N)NC(=O)CNC(=O)CNC(=O)[C@H](Cc2ccccc2)NC(=O)[C@@H](NC(=O)[C@H](CO)NC(=O)[C@H](CO)NC(=O)[C@H](CCCNC(=N)N)NC(=O)[C@H](CCCNC(=N)N)NC(=O)[C@H](CC(C)C)NC(=O)[C@@H](N)CO)CSSC[C@@H](C(=O)N[C@@H](CC(N)=O)C(=O)N[C@@H](CO)C(=O)N[C@@H](Cc2ccccc2)C(=O)N[C@@H](CCCNC(=N)N)C(=O)N[C@@H](Cc2ccc(O)cc2)C(=O)O)NC(=O)CNC(=O)[C@H](CC(C)C)NC(=O)CNC(=O)[C@H](CO)NC(=O)[C@H](CCC(N)=O)NC(=O)[C@H](C)NC(=O)CNC1=O
Activity (Rattus norvegicus [6]): Active
Activity (Rattus norvegicus [7]): Active

SMILES: CCCCC1C(=O)N=C(N)N1c1nc(NC(=N)N)nc(Nc2ccc(Nc3nc(NC(=N)N)nc(N4C(N)=NC(=O)C4CCCC)n3)cc2)n1 (configuration not stated)
Activity (Rattus norvegicus [1]): Dose-dependent effect
EC50 [2]: 2 nM
Activity (Rattus norvegicus [3]): Dose-dependent effect
EC50 [4]: 23 nM
Activity (Rattus norvegicus [5]): Active

Results, then the compound that gave them:

EC50 [2]: 19 nM
SMILES: CC(C)CC1C(=O)N=C(N)N1c1nc(NC(=N)N)nc(Nc2ccc(Nc3nc(NC(=N)N)nc(N4C(N)=NC(=O)C4C)n3)cc2)n1 (configuration not stated)

EC50 [2]: 5.8 nM
SMILES: CC(C)CC1C(=O)N=C(N)N1c1nc(NC(=N)N)nc(Nc2ccc(Nc3nc(NC(=N)N)nc(N4C(N)=NC(=O)C4CC(C)C)n3)cc2)n1 (configuration not stated)

EC50 [2]: 4000 nM
SMILES: CC(C)CC1C(=O)N=C(N)N1c1nc(NC(=N)N)nc(Nc2ccccc2)n1 (configuration not stated)

EC50 [2]: > 10000 nM
SMILES: CC1C(=O)N=C(N)N1c1nc(NC(=N)N)nc(Nc2ccc(Nc3nc(NC(=N)N)nc(N4C(N)=NC(=O)C4C)n3)cc2)n1 (configuration not stated)
